Experimental data from patent publication US20060069132A1, “Azolecarboxamide herbicides” (priority 2004, published 2006).

Tests used:
barnyardgrass [1] = experiment: Test B flooded paddy test; type: in vivo, Echinochloa crus-galli; conditions: 1000 g ai/ha, scale 0 to 100 (0 no effect, 100 complete control)
Outline: (§1)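 Scale 0–100: zero equals no visible effect, 100 complete control, judged by eye relative to controls. Timing: 13 to 15 days in greenhouse post-treatment. Growth stage at spraying: two leaves (paddy) or one to four leaves, 2–18 cm (postemergence).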

morningglory = experiment: Test B pre-/postemergence herbicide test; type: in vivo, Ipomoea coccinea; conditions: for Morningglory plant response rating (0 to 100 scale) / Plant response rating, Morningglory: 0 = no effect, 100 = complete control, preemergence; for Plant response rating, Morningglory / Morningglory plant response rating: visual rating; for Morningglory plant response rating: postemergence, scale 0 (no effect) to 100 (complete control)
Outline: (§2)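 Formulation: non-phytotoxic solvent mix with surfactant. Timing: preemergence on seed and postemergence on 2–18 cm plants, applied concurrently. Readout after 13–15 d greenhouse: visual 0–100 control rating against controls.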

barnyardgrass [2] = experiment: Test B pre-/postemergence herbicide test; type: in vivo, Echinochloa crus-galli; conditions: for Barnyardgrass plant response rating (0 to 100 scale) / Plant response rating, Barnyardgrass: 0 = no effect, 100 = complete control, preemergence; for Plant response rating, Barnyardgrass / Barnyardgrass plant response rating: visual rating; for Barnyardgrass plant response rating: postemergence, scale 0 (no effect) to 100 (complete control)
Outline: as §2

velvetleaf = experiment: Test B pre-/postemergence herbicide test; type: in vivo, Abutilon theophrasti; conditions: for Velvetleaf plant response rating (0 to 100 scale) / Plant response rating, Velvetleaf: 0 = no effect, 100 = complete control, preemergence; for Plant response rating, Velvetleaf / Velvetleaf plant response rating: visual rating; for Velvetleaf plant response rating: postemergence, scale 0 (no effect) to 100 (complete control)
Outline: (§3)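 Visual rating, 0 (no effect) to 100 (complete control), versus untreated controls after 13–15 d in greenhouse. Pre- and postemergence applications (postemergence plants 2–18 cm, 1–4 leaves); flooded paddy arm at 2-leaf stage. Compounds in non-phytotoxic solvent plus surfactant.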

ducksalad = experiment: Test B flooded paddy test; type: in vivo, Heteranthera limosa; conditions: 1000 g ai/ha, scale 0 to 100 (0 no effect, 100 complete control)
Outline: as §1

Surinam grass = experiment: Test B pre-/postemergence herbicide test; type: in vivo, Urochloa decumbens; conditions: for Surinam Grass plant response rating (0 to 100 scale) / Plant response rating, Surinam Grass: 0 = no effect, 100 = complete control, preemergence; for Plant response rating, Surinam Grass / Surinam Grass plant response rating: visual rating; for Surinam Grass plant response rating: postemergence, scale 0 (no effect) to 100 (complete control)
Outline: as §3

corn = experiment: Test B pre-/postemergence herbicide test; type: in vivo, Zea mays; conditions: for Corn plant response rating: postemergence, scale 0 (no effect) to 100 (complete control)
Outline: as §3

blackgrass = experiment: Test B postemergence herbicide test; type: in vivo, Alopecurus myosuroides; conditions: postemergence, visual rating, scale 0 (no effect) to 100 (complete control)
Outline: as §1

giant foxtail = experiment: Test B pre-/postemergence herbicide test; type: in vivo, Setaria faberi; conditions: for Foxtail, Giant plant response rating (0 to 100 scale) / Plant response rating, Foxtail, Giant: 0 = no effect, 100 = complete control, preemergence; for Plant response rating, Foxtail, Giant / Foxtail, Giant plant response rating: visual rating; for Foxtail, Giant plant response rating: postemergence, scale 0 (no effect) to 100 (complete control)
Outline: as §3

lambsquarters = experiment: Test B pre-/postemergence herbicide test; type: in vivo, Chenopodium album; conditions: for Lambsquarters plant response rating (0 to 100 scale) / Plant response rating, Lambsquarters: 0 = no effect, 100 = complete control, preemergence; for Plant response rating, Lambsquarters / Lambsquarters plant response rating: visual rating; for Lambsquarters plant response rating: postemergence, scale 0 (no effect) to 100 (complete control)
Outline: as §3

wild oat = experiment: Test B postemergence herbicide test; type: in vivo, Avena fatua; conditions: postemergence, visual rating, scale 0 (no effect) to 100 (complete control)
Outline: (§4)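 Read-out: visual comparison with controls, scored 0 to 100, where 100 means complete control and 0 no effect. Formulated chemicals were applied postemergence to plants 2–18 cm tall (1- to 4-leaf), or to flooded-paddy plants at the 2-leaf stage, then held 13 to 15 days under glass.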

wheat = experiment: Test B postemergence herbicide test; type: in vivo, Triticum aestivum; set-up: key to Wheat plant response rating: 0 = no effect, 100 = complete control; conditions: postemergence, visual rating, scale 0 (no effect) to 100 (complete control)
Outline: as §4

large crabgrass = experiment: Test B pre-/postemergence herbicide test; type: in vivo, Digitaria sanguinalis; conditions: for Crabgrass, Large plant response rating (0 to 100 scale) / Plant response rating, Crabgrass, Large: 0 = no effect, 100 = complete control, preemergence; for Plant response rating, Crabgrass, Large / Crabgrass, Large plant response rating: visual rating; for Crabgrass, Large plant response rating: postemergence, scale 0 (no effect) to 100 (complete control)
Outline: as §3

rice [3] = experiment: Test B pre-/postemergence herbicide test; type: in vivo, Oryza sativa; conditions: 0 = no effect, 100 = complete control, preemergence; for Rice plant response rating (0 to 100 scale): 125 g ai/ha; for Plant response rating, Rice: 500 g ai/ha, visual rating
Outline: as §3

[4] = system: small flower umbrella sedge; experiment: Test B flooded paddy test; type: in vivo, Cyperus difformis; conditions: 1000 g ai/ha, scale 0 to 100 (0 no effect, 100 complete control)
Outline: as §1

rice [5] = experiment: Test B flooded paddy test; type: in vivo, Oryza sativa; conditions: 1000 g ai/ha, scale 0 to 100 (0 no effect, 100 complete control)
Outline: as §4

cocklebur = experiment: Test B pre-/postemergence herbicide test; type: in vivo, Xanthium strumarium; conditions: for Cocklebur plant response rating (0 to 100 scale) / Plant response rating, Cocklebur: 0 = no effect, 100 = complete control, preemergence; for Plant response rating, Cocklebur / Cocklebur plant response rating: visual rating; for Cocklebur plant response rating: postemergence, scale 0 (no effect) to 100 (complete control)
Outline: as §2

pigweed = experiment: Test B pre-/postemergence herbicide test; type: in vivo, Amaranthus retroflexus; conditions: for Pigweed plant response rating (0 to 100 scale) / Plant response rating, Pigweed: 0 = no effect, 100 = complete control, preemergence; for Plant response rating, Pigweed / Pigweed plant response rating: visual rating; for Pigweed plant response rating: postemergence, scale 0 (no effect) to 100 (complete control)
Outline: as §3

[6] = 125 g ai/ha, 0 = no effect, 100 = complete control, preemergence

CCN(CC)C(=O)c1cccc(NC(=O)c2nn(C(C)(C)C)cc2Br)c1 [Compound 220]
Barnyardgrass plant response rating (barnyardgrass [1]; visual rating, 13 to 15 days): 0
Morningglory plant response rating (0 to 100 scale) (morningglory; 125 g ai/ha): 0
Plant response rating, Morningglory (morningglory; 500 g ai/ha): 0
Morningglory plant response rating (morningglory; 125 g ai/ha): 0
Morningglory plant response rating (morningglory; 500 g ai/ha): 0
Barnyardgrass plant response rating (0 to 100 scale) (barnyardgrass [2]; 125 g ai/ha): 0
Plant response rating, Barnyardgrass (barnyardgrass [2]; 500 g ai/ha): 0
Barnyardgrass plant response rating (barnyardgrass [2]; 125 g ai/ha): 0
Barnyardgrass plant response rating (barnyardgrass [2]; 500 g ai/ha): 0
Velvetleaf plant response rating (0 to 100 scale) (velvetleaf; 125 g ai/ha): 0
Plant response rating, Velvetleaf (velvetleaf; 500 g ai/ha): 0
Velvetleaf plant response rating (velvetleaf; 125 g ai/ha): 0
Velvetleaf plant response rating (velvetleaf; 500 g ai/ha): 0
Ducksalad plant response rating (ducksalad; visual rating, 13 to 15 days): 40
Surinam Grass plant response rating (0 to 100 scale) (Surinam grass; 125 g ai/ha): 0
Plant response rating, Surinam Grass (Surinam grass; 500 g ai/ha): 10
Surinam Grass plant response rating (Surinam grass; 125 g ai/ha): 0
Surinam Grass plant response rating (Surinam grass; 500 g ai/ha): 10
Corn plant response rating (0 to 100 scale) (corn; [6]): 0
Plant response rating, Corn (corn; 500 g ai/ha, visual rating, 0 = no effect, 100 = complete control, preemergence): 0
Corn plant response rating (corn; 125 g ai/ha, visual rating): 10
Corn plant response rating (corn; 500 g ai/ha, visual rating): 10
Blackgrass plant response rating (blackgrass; 125 g ai/ha): 0
Blackgrass plant response rating (blackgrass; 500 g ai/ha): 0
Foxtail, Giant plant response rating (0 to 100 scale) (giant foxtail; 125 g ai/ha): 0
Plant response rating, Foxtail, Giant (giant foxtail; 500 g ai/ha): 10
Foxtail, Giant plant response rating (giant foxtail; 125 g ai/ha): 0
Foxtail, Giant plant response rating (giant foxtail; 500 g ai/ha): 10
Lambsquarters plant response rating (0 to 100 scale) (lambsquarters; 125 g ai/ha): 0
Plant response rating, Lambsquarters (lambsquarters; 500 g ai/ha): 70
Lambsquarters plant response rating (lambsquarters; 125 g ai/ha): 10
Lambsquarters plant response rating (lambsquarters; 500 g ai/ha): 20
Oat, Wild plant response rating (wild oat; 125 g ai/ha): 0
Oat, Wild plant response rating (wild oat; 500 g ai/ha): 10
Wheat plant response rating (wheat; 125 g ai/ha): 0
Wheat plant response rating (wheat; 500 g ai/ha): 0
Crabgrass, Large plant response rating (0 to 100 scale) (large crabgrass; 125 g ai/ha): 20
Plant response rating, Crabgrass, Large (large crabgrass; 500 g ai/ha): 100
Crabgrass, Large plant response rating (large crabgrass; 125 g ai/ha): 10
Crabgrass, Large plant response rating (large crabgrass; 500 g ai/ha): 10
Rice plant response rating (0 to 100 scale) (rice [3]): 0
Plant response rating, Rice (rice [3]): 0
Sedge, Umbrella plant response rating ([4]; visual rating, 13 to 15 days): 80
Rice plant response rating (rice [5]; visual rating, 13 to 15 days): 0
Cocklebur plant response rating (0 to 100 scale) (cocklebur; 125 g ai/ha): 0
Plant response rating, Cocklebur (cocklebur; 500 g ai/ha): 0
Cocklebur plant response rating (cocklebur; 125 g ai/ha): 0
Cocklebur plant response rating (cocklebur; 500 g ai/ha): 10
Pigweed plant response rating (0 to 100 scale) (pigweed; 125 g ai/ha): 0
Plant response rating, Pigweed (pigweed; 500 g ai/ha): 100
Pigweed plant response rating (pigweed; 125 g ai/ha): 10
Pigweed plant response rating (pigweed; 500 g ai/ha): 10

CCc1cn(C(C)(C)C)nc1C(=O)Nc1cc(C(=O)N(CC)CC)ccn1 [Compound 234]
Barnyardgrass plant response rating (barnyardgrass [1]): 0
Morningglory plant response rating (0 to 100 scale) (morningglory; 125 g ai/ha): 0
Plant response rating, Morningglory (morningglory; 500 g ai/ha): 0
Morningglory plant response rating (morningglory; 125 g ai/ha): 20
Morningglory plant response rating (morningglory; 500 g ai/ha): 70
Barnyardgrass plant response rating (0 to 100 scale) (barnyardgrass [2]; 125 g ai/ha): 0
Plant response rating, Barnyardgrass (barnyardgrass [2]; 500 g ai/ha): 0
Velvetleaf plant response rating (0 to 100 scale) (velvetleaf; 125 g ai/ha): 0
Plant response rating, Velvetleaf (velvetleaf; 500 g ai/ha): 0
Velvetleaf plant response rating (velvetleaf; 125 g ai/ha): 20
Velvetleaf plant response rating (velvetleaf; 500 g ai/ha): 30
Ducksalad plant response rating (ducksalad): 0
Surinam Grass plant response rating (0 to 100 scale) (Surinam grass; 125 g ai/ha): 0
Plant response rating, Surinam Grass (Surinam grass; 500 g ai/ha): 0
Surinam Grass plant response rating (Surinam grass; 125 g ai/ha): 0
Surinam Grass plant response rating (Surinam grass; 500 g ai/ha): 10
Corn plant response rating (0 to 100 scale) (corn; [6]): 0
Corn plant response rating (corn; 125 g ai/ha, visual rating): 0
Corn plant response rating (corn; 500 g ai/ha, visual rating): 20
Blackgrass plant response rating (blackgrass; 125 g ai/ha): 0
Blackgrass plant response rating (blackgrass; 500 g ai/ha): 0
Foxtail, Giant plant response rating (0 to 100 scale) (giant foxtail; 125 g ai/ha): 0
Plant response rating, Foxtail, Giant (giant foxtail; 500 g ai/ha): 10
Foxtail, Giant plant response rating (giant foxtail; 125 g ai/ha): 0
Foxtail, Giant plant response rating (giant foxtail; 500 g ai/ha): 30
Lambsquarters plant response rating (0 to 100 scale) (lambsquarters; 125 g ai/ha): 0
Plant response rating, Lambsquarters (lambsquarters; 500 g ai/ha): 50
Lambsquarters plant response rating (lambsquarters; 125 g ai/ha): 20
Lambsquarters plant response rating (lambsquarters; 500 g ai/ha): 40
Oat, Wild plant response rating (wild oat; 125 g ai/ha): 20
Oat, Wild plant response rating (wild oat; 500 g ai/ha): 20
Wheat plant response rating (wheat; 125 g ai/ha): 0
Wheat plant response rating (wheat; 500 g ai/ha): 10
Crabgrass, Large plant response rating (0 to 100 scale) (large crabgrass; 125 g ai/ha): 0
Plant response rating, Crabgrass, Large (large crabgrass; 500 g ai/ha): 40
Crabgrass, Large plant response rating (large crabgrass; 125 g ai/ha): 10
Crabgrass, Large plant response rating (large crabgrass; 500 g ai/ha): 20
Rice plant response rating (0 to 100 scale) (rice [3]): 0
Plant response rating, Rice (rice [3]): 0
Sedge, Umbrella plant response rating [4]: 0
Rice plant response rating (rice [5]): 0
Cocklebur plant response rating (0 to 100 scale) (cocklebur; 125 g ai/ha): 0
Plant response rating, Cocklebur (cocklebur; 500 g ai/ha): 0
Cocklebur plant response rating (cocklebur; 125 g ai/ha): 10
Cocklebur plant response rating (cocklebur; 500 g ai/ha): 20
Pigweed plant response rating (0 to 100 scale) (pigweed; 125 g ai/ha): 0
Plant response rating, Pigweed (pigweed; 500 g ai/ha): 40
Pigweed plant response rating (pigweed; 125 g ai/ha): 30
Pigweed plant response rating (pigweed; 500 g ai/ha): 30
